Measurements reported in patent publication US20260152487A1 (Sitryx Therapeutics Limited, priority 2021, published 2026).

What was measured:
recombinant human PKM2 = biological target: T1, recombinant human PKM2 (Homo sapiens, UniProt P14618); assay: Human PKM2 activation assay (Kinase-Glo Plus luminescent detection of generated ATP); assay type: biochemical; settings: for Emax: percentage activation normalised to DMSO vehicle (LOW) and 5 μM TEPP-46 (HIGH), read-out: hPKM2 Emax; for EC50: recombinant human PKM2 activation, 4-parameter logistic fit, read-out: hPKM2 EC50
T1 construct: His (N); purchased R&D Systems
T1 sequence (P14618 2-531 limits assumed): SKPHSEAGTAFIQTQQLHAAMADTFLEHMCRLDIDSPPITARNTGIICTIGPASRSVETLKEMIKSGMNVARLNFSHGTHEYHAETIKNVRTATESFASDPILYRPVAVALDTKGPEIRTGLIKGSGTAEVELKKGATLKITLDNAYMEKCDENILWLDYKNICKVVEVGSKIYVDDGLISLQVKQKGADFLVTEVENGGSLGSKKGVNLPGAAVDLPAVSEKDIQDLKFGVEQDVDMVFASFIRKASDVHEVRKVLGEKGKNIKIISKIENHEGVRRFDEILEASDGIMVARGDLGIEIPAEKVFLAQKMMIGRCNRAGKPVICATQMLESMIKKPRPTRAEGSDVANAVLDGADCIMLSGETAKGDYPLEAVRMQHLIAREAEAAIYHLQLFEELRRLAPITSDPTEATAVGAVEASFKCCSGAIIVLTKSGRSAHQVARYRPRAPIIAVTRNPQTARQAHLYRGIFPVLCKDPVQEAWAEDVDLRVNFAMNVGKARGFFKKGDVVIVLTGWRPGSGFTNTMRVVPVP
Method in brief: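 Luminescent ATP detection (Kinase-Glo Plus, 15 min, 26 °C) followed a 60 min, 26 °C shaken reaction of compound with […] His-tagged human PKM2, PEP and ADP in imidazole/KCl/MgCl2 buffer with Tween20 and BSA, pH 7.2.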

recombinant human PKLR = biological target: T2, recombinant human PKLR (Homo sapiens, UniProt P30613); assay: Human PKLR activation assay (Kinase-Glo Plus luminescent detection of generated ATP); assay type: biochemical; settings: for EC50: activation of recombinant human PKLR, 4-parameter logistic fit, read-out: hPKLR EC50; for Emax: percentage activation normalised to DMSO vehicle (LOW) and 5 μM TEPP-46 (HIGH) controls, read-out: hPKLR Emax (%)
T2 construct: His (N); purchased R&D Systems
T2 sequence (P30613 whole entry): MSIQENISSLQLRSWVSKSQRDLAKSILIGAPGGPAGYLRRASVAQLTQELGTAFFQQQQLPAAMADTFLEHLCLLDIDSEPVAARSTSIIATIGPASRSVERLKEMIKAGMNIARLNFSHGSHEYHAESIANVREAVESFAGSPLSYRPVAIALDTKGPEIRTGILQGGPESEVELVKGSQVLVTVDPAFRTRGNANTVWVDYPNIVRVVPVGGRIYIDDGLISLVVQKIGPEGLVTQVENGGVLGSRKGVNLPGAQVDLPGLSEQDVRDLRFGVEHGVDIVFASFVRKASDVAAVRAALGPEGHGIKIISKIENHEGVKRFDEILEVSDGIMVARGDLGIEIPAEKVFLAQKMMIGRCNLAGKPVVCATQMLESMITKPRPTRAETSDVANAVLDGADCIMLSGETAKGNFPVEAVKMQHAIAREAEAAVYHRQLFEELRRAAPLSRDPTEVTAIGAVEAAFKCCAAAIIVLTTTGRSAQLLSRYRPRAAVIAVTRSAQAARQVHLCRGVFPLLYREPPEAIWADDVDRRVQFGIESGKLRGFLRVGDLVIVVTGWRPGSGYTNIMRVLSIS
Method: Compound activation of recombinant human PKLR pyruvate kinase activity was determined by biochemical assay. N-terminal His-tagged enzyme was sourced from R&D Systems and its substrates phosphoenolpyruvate (PEP) and ADP from Sigma-Aldrich and 2Bscientific Ltd, respectively. The Kinase-Glo® Plus luminescence assay was from Promega. All other reagents were from Sigma-Aldrich. Test Compounds were prepared as 10 mM DMSO stocks and dilution series prepared in DMSO for direct dilution into Assay Buffer comprising 50 mM imidazole, 50 mM KCl, 7 mM MgCl2, 0.01% Tween20, 0.05% BSA (pH 7.2).
Human PKLR was diluted into Assay Buffer to a final concentration of 5 pM. Enzyme-Assay Buffer mix was dispensed into 384-well shallow-well white-walled plates and Test Compounds added by acoustic dispense (Echo®, Labcyte Inc).
After 60 minutes' incubation on an orbital shaker (300 rpm, 26° C.), enzyme activity was quantified by the luminescent detection of generated ATP. Kinase-Glo® Plus reagent was added to each well and the plates incubated for a further 15 minutes on an orbital shaker in the dark (300 rpm, 26° C.) before luminescence measurement on a plate reader (PHERAstar® FSX, BMG Labtech).
Percentage activation was calculated by normalising […] signals to plate LOW (DMSO vehicle) and HIGH (5 μM TEPP-46) controls. EC50 and Emax values were determined from 4-parameter logistic fits of compound concentration-response curves.

A549 cells = assay: A549 cell proliferation in low-serine medium (CellTiter-Glo 2.0 viable cell number); assay type: cell-based; settings: Homo sapiens, 72 h, 3 days, Assay Medium with 20 μM L-serine
Method: The effect of compounds of Formula (Ia) on A549 cell proliferation in low-serine medium was assessed using a luminescence assay of viable cell number (CellTiter-Glo® 2.0, Promega) duplexed with a fluorescent cytotoxicity assessment (CelITox™ Green, Promega). Cell culture reagents were from ThermoFisher unless specified otherwise. Assay reagents were from Sigma-Aldrich unless specified otherwise. Test Compounds were prepared as 10 mM DMSO stocks and dilution series prepared in DMSO for direct dilution into culture medium.
Cells were passaged every 3-4 days at 80-90% confluence. The cell monolayer was washed twice with room-temperature Ca^2+/Mg-free PBS and 4 ml room-temperature trypsin-EDTA added to the flask. After 5 minutes' incubation (37° C., 5% CO2) to detach cells, trypsin was quenched with 13 ml warmed complete growth medium and the cells harvested and diluted to 2.4×10^4 cells/ml for dispensing into 384-well clear-bottom black-walled plates (600 cells/well).
Following overnight incubation, growth medium was aspirated from each well and the cells washed twice with Assay Medium comprising Basal Medium Eagle supplemented with 3% heat-inactivated dialysed FBS plus 2 mM L-glutamine plus 20 μM L-serine (Sigma-Aldrich). After aspiration of the final wash medium, Assay Medium containing Test Compound was added to each well. DMSO vehicle controls were included on each plate.
Cells were incubated for 3 days in a humidified incubator (37° C., 5% CO2) at which point CelITox™ Green and CellTiter-Glo® reagents were prepared according to the manufacturer's instructions. Triton-X was added to HIGH wells for cytotoxicity determination and the plate incubated for 30 minutes (20° C., ambient humidity and pCO2). CelITox™ Green reagent was added to each well and the plate covered, placed on an orbital shaker @450 rpm for 2 minutes, and incubated in the dark for 15 minutes (20° C., ambient humidity and pCO2). Endpoint fluorescence was measured using a plate reader (PHERAstar® FSX, BMG Labtech).
Following cytotoxicity determination, CellTiter-Glo® reagent was added to each well and the plate placed on an orbital shaker @450 rpm for 2 minutes to lyse cells. Plates were incubated in the dark for 15-30 minutes (20° C., ambient humidity and pCO2) prior to endpoint luminescence measurement (PHERAstar® FSX, BMG Labtech).
Proliferation was calculated by normalizing luminescence signals to LOW controls obtained from a parallel plate processed at the time of Test Compound challenge and HIGH (DMSO vehicle) wells from the compound plate. IC50 values were determined from a 4-parameter logistic fit of compound concentration-response curves.

Row | Structure (SMILES) | Emax (recombinant human PKM2) | EC50 (recombinant human PKM2) | EC50 (recombinant human PKLR) | Emax (recombinant human PKLR) | IC50 (A549 cells)
1 | Cn1ccc(Cn2ncc3cc(S(=O)(=O)c4ccccc4)ccc3c2=O)n1 [Example 60, 2-((1-methyl-1H-pyrazol-3-yl)methyl)-6-(phenylsulfonyl)phthalazin-1(2H)-one] | 110% | 100 nM | 34.1 nM | 122% | 3.6 nM
2 | O=c1c2ccc(S(=O)(=O)c3ccccc3)cc2cnn1Cc1cc[nH]n1 [Example 68, 2-((1H-pyrazol-3-yl)methyl)-6-(phenylsulfonyl)phthalazin-1(2H)-one] | 117% | 70.8 nM | 17.1 nM | 134% | 2.2 nM
3 | COc1ccc(S(=O)(=O)c2ccc3c(=O)n(Cc4cccnc4O)ncc3c2)cc1 [Example 56, 2-((2-hydroxypyridin-3-yl)methyl)-6-((4-methoxyphenyl)sulfonyl)phthalazin-1(2H)-one] | 98% | 51.9 nM | 10.1 nM | 131% | 1.7 nM
4 | COc1ccc(Cn2ncc3cc(S(=O)(=O)c4ccccc4)ccc3c2=O)cn1 [Example 41, 2-((6-methoxypyridin-3-yl)methyl)-6-(phenylsulfonyl)phthalazin-1(2H)-one] | 111% | 42.1 nM | 15.8 nM | 109% | 2 nM
5 | COc1ccc(S(=O)(=O)c2ccc3c(=O)n(Cc4ccn(C5CC5)n4)ncc3c2)cc1 [Example 1, 2-((1-cyclopropyl-1H-pyrazol-3-yl)methyl)-6-((4-methoxyphenyl)sulfonyl)phthalazin-1(2H)-one] | 129% | 27.6 nM | 4.7 nM | 159% | 1.2 nM
6 | Cc1cc(Cn2ncc3cc(S(=O)(=O)c4ccccc4)ccc3c2=O)n[nH]1 [Example 96, 2-((5-methyl-1H-pyrazol-3-yl)methyl)-6-(phenylsulfonyl)phthalazin-1(2H)-one] | 116% | 62.6 nM | 9.3 nM | 128% | 3.3 nM
7 | Cc1cc(Cn2ncc3cc(S(=O)(=O)c4ccccc4)ccc3c2=O)nn1C [Example 90, 2-((1,5-dimethyl-1H-pyrazol-3-yl)methyl)-6-(phenylsulfonyl)phthalazin-1(2H)-one] | 106% | 55.7 nM | 10.1 nM | 139% | 3 nM
8 | Cc1cccc(Cn2ncc3cc(S(=O)(=O)c4ccccc4)ccc3c2=O)n1 [Example 75, 2-((6-methylpyridin-2-yl)methyl)-6-(phenylsulfonyl)phthalazin-1(2H)-one] | 108% | 47.7 nM | 11.5 nM | 137% | 2.2 nM
9 | COc1ccc(S(=O)(=O)c2ccc3c(=O)n(Cc4cc(C)[nH]n4)ncc3c2)cc1 [Example 54, 6-((4-methoxyphenyl)sulfonyl)-2-((5-methyl-1H-pyrazol-3-yl)methyl)phthalazin-1(2H)-one] | 112% | 45.5 nM | 3.1 nM | 142% | 2.2 nM
10 | COc1ccc(S(=O)(=O)c2ccc3c(=O)n(Cc4c(F)cc(OC)cc4F)ncc3c2)cc1 [Example 53, 2-(2,6-difluoro-4-methoxybenzyl)-6-((4-methoxyphenyl)sulfonyl)phthalazin-1(2H)-one] | 89.2% | 59.1 nM | – | – | 5.7 nM
11 | O=c1c2ccc(S(=O)(=O)c3ccccc3)cc2cnn1Cc1cncc(O)c1 [Example 7, 2-((5-hydroxypyridin-3-yl)methyl)-6-(phenylsulfonyl)phthalazin-1(2H)-one] | 99.8% | 177 nM | – | – | 6.7 nM
12 | O=c1c2ccc(S(=O)(=O)c3ccccc3)cc2cnn1Cc1ccn(CCO)n1 [Example 10, 2-((1-(2-hydroxyethyl)-1H-pyrazol-3-yl)methyl)-6-(phenylsulfonyl)phthalazin-1(2H)-one] | 98.8% | 166 nM | – | – | 7.8 nM
13 | Cc1ncc(Cn2ncc3cc(S(=O)(=O)c4ccccc4)ccc3c2=O)s1 [Example 30, 2-((2-methylthiazol-5-yl)methyl)-6-(phenylsulfonyl)phthalazin-1(2H)-one] | 99.4% | 739 nM | – | – | 15.8 nM
14 | NC(=O)Cc1ccccc1Cn1ncc2cc(S(=O)(=O)c3ccccc3)ccc2c1=O [Example 61, 2-(2-((1-oxo-6-(phenylsulfonyl)phthalazin-2(1H)-yl)methyl)phenyl)acetamide] | 67.2% | 564 nM | – | – | 15.8 nM
15 | Cc1c[nH]nc1Cn1ncc2cc(S(=O)(=O)c3ccccc3)ccc2c1=O [Example 12, 2-((4-methyl-1H-pyrazol-3-yl)methyl)-6-(phenylsulfonyl)phthalazin-1(2H)-one] | 92% | 63.6 nM | – | – | 2.7 nM
16 | NC(=O)c1sccc1Cn1ncc2cc(S(=O)(=O)c3ccccc3)ccc2c1=O [Example 13, 3-((1-oxo-6-(phenylsulfonyl)phthalazin-2(1H)-yl)methyl)thiophene-2-carboxamide] | 113% | 117 nM | – | – | 3.1 nM
17 | CNC(=O)c1occc1Cn1ncc2cc(S(=O)(=O)c3ccc(OC)cc3)ccc2c1=O [Example 17, 3-((6-((4-methoxyphenyl)sulfonyl)-1-oxophthalazin-2(1H)-yl)methyl)-N-methylfuran-2-carboxamide] | 54.9% | 112 nM | – | – | 2.9 nM
18 | CCn1ccc(Cn2ncc3cc(S(=O)(=O)c4ccccc4)ccc3c2=O)n1 [Example 11, 2-((1-ethyl-1H-pyrazol-3-yl)methyl)-6-(phenylsulfonyl)phthalazin-1(2H)-one] | 99% | 72.4 nM | – | – | 3.9 nM
19 | COc1cncc(Cn2ncc3cc(S(=O)(=O)c4ccccc4)ccc3c2=O)c1 [Example 31, 2-((5-methoxypyridin-3-yl)methyl)-6-(phenylsulfonyl)phthalazin-1(2H)-one] | 74.9% | 809 nM | – | – | 42 nM
20 | COc1ccc(S(=O)(=O)c2ccc3c(=O)n(Cc4ccc(OC)cc4C(N)=O)ncc3c2)cc1 [Example 106, 5-methoxy-2-((6-(4-methoxyphenylsulfonyl)-1-oxophthalazin-2(1H)-yl)methyl)benzamide] | 93% | 142 nM | – | – | 6.2 nM
21 | Cn1cc(Cl)c(Cn2ncc3cc(S(=O)(=O)c4ccccc4)ccc3c2=O)n1 [Example 76, 2-((4-chloro-1-methyl-1H-pyrazol-3-yl)methyl)-6-(phenylsulfonyl)phthalazin-1(2H)-one] | 101% | 105 nM | – | – | 4.1 nM
22 | O=c1c2ccc(S(=O)(=O)c3ccccc3)cc2cnn1Cc1ccccc1 [Example 71, 2-benzyl-6-(phenylsulfonyl)phthalazin-1(2H)-one] | 102% | 115 nM | – | – | 14.1 nM
